Data taken from patent publication US11344517B2, “Injectable supersaturated acetaminophen solution for spinal administration” (priority 2012, dated 2022).
In brackets after ≈: the same amount, converted by molar mass. Several values for one entry are separate records, joined by “and”; a condition that tells them apart may be missing. Identical values can stand only once.

Legend:
[1] = Solubility of acetaminophen at 20° C.; type: physicochemical; details: water
[2] = system: oedema at the site of inflammation induced by carrageenan; experiment: Development of oedema (paw volume), carrageenan model; type: in vivo, mice; details: for Paw volume (oedema): mice, individual animals
Method: The efficacy of the acetaminophen supersaturated solution administered by spinal administration (IT) was tested by means of explorative experiments in a model of inflammatory pain in mice, induced by means of intraplantar injection (injection in the rear left paw, referred to hereinafter as the “site of inflammation”) of carrageenan (50 μl 1%).
The development of oedema at the site of inflammation was measured and expressed as an increase of volume (mL) of the site of inflammation.
Spinal administration in the mouse was carried out as described by Fairbanks (2003).

[3] = system: post-surgical pain in rats; type: in vivo; details: 4 hours after the incision, IT acetaminophen 200 μg, chloroprocaine 3% 20 μL; for pain threshold following mechanical stimulation: individual animals
Method: The efficacy of the acetaminophen supersaturated solution administered by spinal administration (IT) was tested with explorative experiments in a model of post-surgical pain in rats in combination with a solution of chloroprocaine 3%.
The post-surgical pain was induced by means of incision and subsequent suture of the subplantar region of the rear left paw, as described by Timothy J. Brennan (1996).
The pain threshold following mechanical stimulation (expressed in grams) was measured 4 hours after the incision. Complete reduction of the anaesthetic effect of the spinal chloroprocaine is expected within this period of time. The reduction of the pain threshold is considered to be an indicator of pain and hyperalgesia of the zone affected by surgical intervention.

[4] = system: post-surgical pain in rats; type: in vivo; details: IT chloroprocaine 3% 20 μL, after 4 hours

Structure (SMILES) | solubility [1] [mg/mL] | Paw volume (oedema) ([2]; 10 μg IT, 2 hours after carrageenan) | Paw volume (oedema) ([2]; 10 μg IT, 4 hours after carrageenan) | Paw volume (oedema) ([2]; 10 μg IT, 6 hours after carrageenan) | Paw volume (oedema) ([2]; 10 μg IT, 24 hours after carrageenan) | Paw volume (oedema) ([2]; 10 μg IT, basal) | Paw volume (oedema) ([2]; 100 μg IT, 2 hours after carrageenan) | Paw volume (oedema) ([2]; 100 μg IT, 4 hours after carrageenan) | Paw volume (oedema) ([2]; 100 μg IT, 6 hours after carrageenan) | Paw volume (oedema) ([2]; 100 μg IT, 24 hours after carrageenan) | Paw volume (oedema) ([2]; 100 μg IT, basal) | reduction of the development of oedema at the site of inflammation ([2]; 100 μg per mouse IT, first two hours following induction) | pain threshold following mechanical stimulation [3] | recovery of walking and tension of the rear limbs [4] | effect on pain threshold / post-surgical pain [3]
CC(=O)Nc1ccc(O)cc1 [Acetaminophen, acetyl-p-aminophenol] | ~13 (≈ 86 mM) | 0.43 mL and 0.36 mL (2×) and 0.38 mL and 0.37 mL (2×) and 0.44 mL | 0.39 mL and 0.36 mL and 0.34 mL and 0.38 mL and 0.44 mL (2×) and 0.41 mL | 0.44 mL and 0.38 mL and 0.33 mL (2×) and 0.37 mL and 0.45 mL and 0.36 mL | 0.47 mL and 0.4 mL and 0.46 mL and 0.37 mL and 0.5 mL and 0.42 mL (2×) | 0.29 mL (2×) and 0.24 mL and 0.2 mL and 0.21 mL and 0.26 mL and 0.22 mL | 0.32 mL and 0.34 mL and 0.33 mL (3×) and 0.37 mL and 0.36 mL | 0.35 mL (2×) and 0.37 mL and 0.38 mL (2×) and 0.36 mL and 0.34 mL | 0.38 mL (2×) and 0.4 mL (2×) and 0.39 mL and 0.43 mL and 0.35 mL | 0.33 mL and 0.41 mL and 0.42 mL and 0.44 mL and 0.47 mL and 0.45 mL and 0.46 mL | 0.27 mL and 0.28 mL and 0.29 mL and 0.24 mL and 0.26 mL and 0.25 mL and 0.18 mL | approximately 20% | 22.75 grams and 24.90 grams and 24.00 grams and 28.00 grams and 38.75 grams |  | 
CCN(CC)CCOC(=O)c1ccc(N)cc1Cl [Chloroprocaine, chloroprocaine] |  |  |  |  |  |  |  |  |  |  |  |  | 23.60 grams and 22.75 grams and 19.75 grams and 24.25 grams | complete recovery in terms of walking and tension of the rear limbs | did not change the pain threshold
